Results on 63 compounds are retold here after a melting point compilation (Tetko et al.; mined from patent text by program, amines drawn as free bases though some values may be those of a salt).

In general, melting point refers to the temperature of the solid-liquid transition.

As to `Cc1cc(-c2cc(C(F)F)n3ncc(C(=O)Nc4cccc(S(=O)(=O)N5CCN(C)CC5)c4)c3n2)ccc1C(F)(F)F`, the melting point is 198 °C.

As for `CS(=O)(=O)N1CCN(c2ccc(NC(=O)c3ccccc3-c3ccc(C(F)(F)F)cc3)cc2)CC1`, the melting point is 254 to 256 °C.

In turn, `O=[N+]([O-])c1ccc(Oc2cncc(Cl)n2)cc1` returned a melting point of 125 to 127 °C.

Compound `CC(=O)N1CCN=C1Nc1cc(C)nn1-c1ccc(Cl)c(Cl)c1` returned a melting point of 156 to 157 °C.

Regarding `CCOc1cc2cc(C(=O)N3CC(CCl)c4c3cc(N3C(=O)c5ccccc5C3=O)c3ncccc43)[nH]c2c(OCC)c1OCC` (stereo not drawn), the melting point lay in the range of 189 to 191 °C.

The compound `Cc1ncoc1C(=O)c1ccoc1` came in with a melting point of 82 to 83.5 °C.

With `CCOC(OCC)c1nc(N)nc(N)c1-c1ccc(Cl)cc1Cl`, the melting point amounted to 225 °C.

In the case of `Cc1ccc(-c2ccc3c(c2)C(=O)CC3)cc1`, the melting point lay in the range of 121 to 122 °C.

As for `CCOC(=O)CCCC1CCN(CCOC(c2ccccc2)c2ccc(Cl)cc2)CC1` (stereo not drawn), the melting point lay in the range of 117 to 119 °C.

For the compound `CCCCc1nc2c(N)nc3ccccc3c2n1CC(C)(C)C(N)=O`, the melting point is 231 to 233 °C.

As for `O=C1NC(=O)C(CCCc2ccc3oc(Cc4ccc5ccccc5c4)nc3c2)O1` (stereo not drawn), the melting point was in the range of 151 to 152 °C.

Compound `Nc1nc(Cl)nc2cnc(Oc3ccc(F)cc3F)cc12` came in with a melting point of more than 300 °C.

As for `CCCc1nn(-c2ccc(C(F)(F)F)cn2)cc1CCCOc1c(C)cnn1CC(=O)O`, the melting point was in the range of 145 to 146 °C.

For `O=c1[nH]c2ccc(F)cc2c(=O)n1-c1ccc(Cl)cc1Cl`, the melting point was in the range of 313 to 314 °C.

`Cc1cc(C)c(Nc2nc(C)ncc2S(=O)(=O)c2ccc(C3=NCCN3)cc2)c(C)c1`: the melting point was 240 to 242 °C.

In turn, `CCCCCCCC(=O)NCCCCCO` came in with a melting point of 62 to 63 °C.

Regarding `CCCCCCCCCCCCc1ccc(N=C(C)c2ccccc2)cc1`, the melting point amounted to 47 °C.

Compound `CC1OC(=O)Nc2ccc(-c3cccc(Cl)c3)cc21` (stereo not drawn) displayed a melting point of 155 to 156 °C.

On to `Cc1ccc(S(=O)(=O)NCc2ccc(CCN3CCN(c4ccncc4)CC3)cc2)cc1`, for which the melting point is 180 to 182 °C.

`O=C(O)c1cc2cc3[nH]c(=O)[nH]c3cc2[nH]1` displayed a melting point of more than 270 °C.

In turn, `COc1cccc2c(CCBr)coc12` yielded a melting point of 61 to 62 °C.

In turn, `NS(=O)(=O)c1cccc(-c2noc(-c3cnc4ccc(-c5ccc(C(F)(F)F)cc5)cn34)n2)c1` showed a melting point of 288 °C.

As for `O[C@H]1C[C@H]2CN(C3=Nc4cc(Cl)ccc4Sc4ccccc43)CCN2C1`, the melting point lay within 58 to 60 °C.

For the compound `COc1ccc(O)cc1[N+](=O)[O-]`, the melting point is 78 to 80 °C.

The compound `CCCCCCCCNC(=O)N1CCC(c2nc(N)nc3ccccc23)CC1` had a melting point of 85 to 87 °C.

With `CCCCCCC(CC(=O)Nc1cc(C(N)=O)ccc1C(C)(C)C)c1ccc(OC)cc1OC` (stereo not drawn), the melting point fell in the range of 152 to 153 °C.

Turning to `O=C(O)c1coc(-c2ccc(Cl)c(C(=O)NCC34CC5CC(CC(C5)C3)C4)c2)n1`, the melting point fell in the range of 254 to 257 °C.

The compound `S=C(NCCc1ccc(Cl)cc1)Nc1nc2ccccc2[nH]1` yielded a melting point of 173 to 182 °C.

Consider `CC(C)(C)C(=O)OCOC(=O)c1cn(CC(F)(F)F)c2cc3c(cc2c1=O)OCO3`, for which the melting point was 190 to 191 °C.

In the case of `CCCOc1cc([N+](=O)[O-])ccc1Cl`, the melting point fell in the range of 52 to 53 °C.

`O=c1[nH][nH]c(C(F)(F)F)c1Cc1ccc(Br)cc1` came in with a melting point of 135 to 136 °C.

`Cc1cc(C)c2c(c1C)OCC2=O` yielded a melting point of 92 to 93 °C.

On to `C[C@H]1c2cc(F)ccc2-c2ccc(F)cc2N1S(=O)(=O)c1cccc(O)c1`, for which the melting point fell in the range of 181 to 182 °C.

The compound `c1ccc(Nc2ccc3nnn(Cc4ccc5ncccc5c4)c3n2)cc1` showed a melting point of 237 to 239 °C.

Take `CCOC(=O)c1cnn2c1CCC2`: the melting point lay within 35 to 37 °C.

`CCOC(=O)c1[nH]c(=O)[nH]c(=O)c1[N+](=O)[O-]` returned a melting point of 259 °C.

Compound `Cc1nc2c(o1)CCc1ccccc1C2=Cc1cccc(NS(C)(=O)=O)c1` yielded a melting point of 185 °C.

As for `Cc1cc(Nc2ccc(O)cc2)c2[nH]ncc2n1`, the melting point lay in the range of 174 to 176 °C.

For `ClCc1cn2cc(Cl)cc(Cl)c2n1`, the melting point was 162 to 163 °C.

Compound `Cc1[nH]c(-c2ccccc2)c(NC(=O)CN2C(=O)c3ccccc3C2=O)c1C(=O)c1ccccc1` returned a melting point of 288 to 290 °C.

In turn, `Cc1c(-c2ccccc2)oc2c(C=CC(=O)O)cccc2c1=O` had a melting point of 226 to 229 °C.

For the compound `CC1(C)COC(=O)C(C(=O)Nc2cccc(C(F)(F)F)c2)C1=O` (stereo not drawn), the melting point is more than 200 °C.

As for `Cc1ccnc2c1C(=O)CC(c1nccs1)C2` (stereo not drawn), the melting point is 88 to 89 °C.

In turn, `Cc1oc(C=Cc2cccc(C(F)(F)F)c2)nc1CC#N` yielded a melting point of 107 to 108 °C.

The compound `C[C@](O)(CBr)C(=O)Nc1ccc([N+](=O)[O-])c(C(F)(F)F)c1` gave a melting point of 70 to 74 °C.

`CCOC(=O)c1cc(NC(=O)NCC(=O)N2[C@@H](C(=O)OC(C)(C)C)CC[C@H]2c2ccccc2)ccc1O` (racemic): the melting point was determined as 150 °C.

`Cc1c(-c2ccccc2)oc2c(C(=O)NCCCN3CCN(c4cccc5c4OCC5)CC3)cccc2c1=O` showed a melting point of 94 to 95 °C.

Consider `CC(C)(O)CC(O)=C(C#N)CC(=O)Nc1ccccc1`, for which the melting point worked out at 103 °C.

`Nc1cc(-c2ccoc2)ccc1Nc1cccc(-n2ccnc2)c1` yielded a melting point of 188 to 189 °C.

The compound `CC(=O)Oc1cc2oc(=O)cc(CSc3ccccc3C(=O)O)c2cc1OC(C)=O` showed a melting point of 216 to 218 °C.

`CC(C)C1(C)NC(c2ccc3ccccc3n2)=NC1=O` (stereo not drawn) returned a melting point of 112 to 117 °C.

On to `O=C(c1ccccc1)c1ccc2nc(CS(=O)c3ccccn3)[nH]c2c1` (stereo not drawn), for which the melting point lay in the range of 142 to 145 °C.

For `CCCCCCCCCCCCCCCCCCCCCCSCCC(=O)NN`, the melting point was found to be 106 °C.

`COc1cc(C)nc(NC(=O)NS(=O)(=O)c2ccsc2S(C)(=O)=O)n1` showed a melting point of 204 to 206 °C.

As to `Cc1scc2c1N(C(=O)N1CCC(CCCCN3CCCCC3)CC1)c1ccccc1NC2=O`, the melting point was 209 to 210 °C.

`CC(C)CCOc1c(-c2ccc(S(C)(=O)=O)cc2)cnn(-c2ccc(F)cc2)c1=O` came in with a melting point of 117 to 120 °C.

Compound `CCCNC1Cc2ccc(C3=NNC(=O)CC3)cc2C1` (stereo not drawn) displayed a melting point of 137 to 138 °C.

In turn, `CCCN(CCCc1c[nH]c2ccc(F)cc12)C1COc2c(C(N)=O)ccc(F)c2C1` (stereo not drawn) gave a melting point of 123 °C.

Compound `Cc1cc(S(=O)(=O)c2c[nH]c3ccc(F)cc23)ccc1C1CCN(C)C1` (stereo not drawn) had a melting point of 86.5 to 93.5 °C.

As to `COC(=O)NC1CCc2c(ccc(OC)c2OC)C1` (stereo not drawn), the melting point fell in the range of 109 to 111 °C.

The compound `CNC(=O)c1cccc(C=NNc2ccc(C)cc2)c1O` came in with a melting point of 108 to 125 °C.

`O=c1oc(-c2ccc(-n3ccnc3)c(C(F)(F)F)c2)nn1Cc1cc(Cl)ccc1O` registered a melting point of 178 to 180 °C.

Turning to `COc1ccccc1-c1cccc(-n2cnc(-c3nc(C)no3)c2)c1`, the melting point is 97.1 to 101 °C.
